This is an account of results in US11654193B2, “Cancer treatment combinations” (The Regents of the University of California, priority 2016, dated 2023).

Entries after “also recorded” stand apart in the source; their conditions may differ. Read-outs that look alike come from different tables or passages of the source.

The test system of assay [1] is natural killer cells, macrophages or neutrophils. Conditions: cited from earlier work; for cell-mediated mechanisms induced by anti-CD20 antibodies rituximab, ofatumumab or obinutuzumab: purified systems or whole blood assays.
Assay [2] deals with ROR-1×TCL1 leukemia cells. The assay is described as follows: ROR-1×TCL1 leukemia adoptive transfer in immunodeficient Rag2-/-γc-/- mice. In kind it is in vivo. Conditions: day 25; for numbers of splenic ROR-1×TCL1 leukemia cells, dose dependence: ibrutinib daily 15, 5, 1.67 mg/kg or single dose UC-961/cirmtuzumab 10, 3, 1 mg/kg. As to the method: ROR-1×TCL1 leukemia adoptive transfer study. […] ROR-1×TCL1 leukemia B cells (CD5B220^lowROR-1^+) were isolated from the spleen, enriched via density gradient centrifugation, suspended in sterile PBS, injected i.v. into Rag2^−/−γc^−/− recipient mice at 2×10^4 cells per animal. Samples used for transplantation were verified by flow cytometry to be >95% leukemia B cells. For dose dependent therapy of UC-961, recipient mice received either no treatment, or one dose i.v. injections of 10 mg/kg, 3 mg/kg and 1 mg/kg of UC-961 on day 1. […] All mice were sacrificed on day 25 and single-cell suspensions of splenocytes were purged of red blood cells by hypotonic lysis in ammonium-chloride-potassium (ACK) lysis solution, washed, suspended in 2% (wt/vol) BSA (Sigma) in PBS (pH=7.4) and stained for surface expression of CD3 (17A2), CD5 (53-7.3), B220 (RA3-6B2), and ROR-1 (4A5) using optimized concentrations of fluorochrome-conjugated mAbs. Cells were examined by four-color, multiparameter flow cytometry using a dual-laser FACSCalibur (BD) and the data were analyzed using FlowJo software (TreeStar). The total number of leukemia cells per spleen was calculated by determining the percent of CD5B220^lowROR-1^+ cells of total lymphocytes by flow cytometry and multiplying this number by the total spleen cell count.
(§1) ROR-1×TCL1 Leukemia Adoptive Transfer Study.

The test system of assay [3] is ROR-1×TCL1 leukemia cells. The assay is described as follows: ROR-1×TCL1 leukemia adoptive transfer in immunocompetent ROR-1-Tg mice. The settings on record: cirmtuzumab 10 mg/kg weekly i.v. and/or ibrutinib 5 mg/kg daily via gavage, after 28 days. In kind it is in vivo.
Excerpt: as §1
After 28 days, the animals were sacrificed and the spleen of each animal was examined.

The subject of assay [4] is cell lines or chronic lymphocytic leukemia samples. Conditions: cited from earlier work.
The mark [5] stands for this setting: single dose UC-961/cirmtuzumab 1 mg/kg and/or ibrutinib 5 mg/kg daily.

Regarding `CC[C@H](Nc1ncnc2[nH]cnc12)c1nc2cccc(F)c2c(=O)n1-c1ccccc1` [idelalisib, 5-Fluoro-3-phenyl-2-[(15)-1-(7H-purin-6-ylamino)propyl]-4(3H)-quinazolinone], in assay [1] (10 μM, compared with ibrutinib at the same concentration), the “effect on immune cell-mediated mechanisms induced by anti-CD20 antibodies” value is “weaker than those observed with ibrutinib”. Moreover, the “cell-mediated mechanisms induced by anti-CD20 antibodies rituximab, ofatumumab or obinutuzumab” value in assay [1] is on record as “similarly inhibits the immune cell-mediated mechanisms”.

As for `C=CC(=O)N1CCC[C@@H](n2nc(-c3ccc(Oc4ccccc4)cc3)c3c(N)ncnc32)C1` [ibrutinib, 1-[(3R)-3-[4-Amino-3-(4-phenoxyphenyl)-1H-pyrazolo[3,4-d]pyrimidin-1-yl]piperidin-1-yl]prop-2-en-1-one], the “numbers of splenic ROR-1×TCL1 leukemia cells, dose dependence” value in assay [2] is given as “Dose-dependent inhibitory effect”; in assay [2] (listed as Ibrutinib), “inhibited the expansion of ROR-1×TCL1 leukemia cells in a dose-dependent manner; also recorded: reduced the numbers of splenic leukemia cells in a dose-dependent manner”. Further, the “percentage and total number of ROR-1×TCL1 leukemia cells per spleen” value in assay [2] (setting [5]) is listed as “significantly lower”. Further, the spleen size result in assay [2] (setting [5]) and in assay [3] was “significantly smaller spleens” each time. The “mean proportion and leukemia cell number in the spleen” value in assay [3] was “significantly lower”. Further, the “complement activation or complement-mediated lysis” value in assay [4] (pre-treatment with ibrutinib) was “did not inhibit complement activation or complement-mediated lysis”. Also, the “direct cell death mediated by anti-CD20 antibodies” value in assay [4] (pretreatment with ibrutinib for 1 hour) is on record as “did not increase direct cell death”. Besides, the entries for the “cell-mediated mechanisms induced by anti-CD20 antibodies rituximab, ofatumumab or obinutuzumab” value in assay [1] and in assay [1] (listed as Ibrutinib) were “strongly inhibited all cell-mediated mechanisms” and “interfered with the activity of the CD20 antibodies”, respectively.
